Read-outs that look alike come from different tables or passages of the source.

Common to all, as to type: binding
Experiment [1] addresses T1, HeLa cell extract proteins (Homo sapiens, UniProt P17980).
T1 construct: endogenous in cells; host or cells: HeLa cell extract

The target in experiment [2] is T2, HeLa cell extract proteins (Homo sapiens, UniProt P37837).
T2 construct: endogenous in cells; host or cells: HeLa cell extract
T2 sequence (P37837 1-337): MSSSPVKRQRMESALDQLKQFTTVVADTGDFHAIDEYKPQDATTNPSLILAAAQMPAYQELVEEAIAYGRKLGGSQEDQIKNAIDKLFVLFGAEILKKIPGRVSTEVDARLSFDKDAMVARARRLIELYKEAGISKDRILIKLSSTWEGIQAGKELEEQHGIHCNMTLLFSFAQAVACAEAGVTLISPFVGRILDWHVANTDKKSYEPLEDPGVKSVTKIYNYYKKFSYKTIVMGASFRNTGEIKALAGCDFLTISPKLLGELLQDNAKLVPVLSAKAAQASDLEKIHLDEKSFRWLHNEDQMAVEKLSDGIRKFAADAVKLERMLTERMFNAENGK

For experiment [3], the target named is T3, HeLa cell extract proteins (Homo sapiens, UniProt P52272).
T3 construct: endogenous in cells; host or cells: HeLa cell extract
T3 sequence (P52272 1-730): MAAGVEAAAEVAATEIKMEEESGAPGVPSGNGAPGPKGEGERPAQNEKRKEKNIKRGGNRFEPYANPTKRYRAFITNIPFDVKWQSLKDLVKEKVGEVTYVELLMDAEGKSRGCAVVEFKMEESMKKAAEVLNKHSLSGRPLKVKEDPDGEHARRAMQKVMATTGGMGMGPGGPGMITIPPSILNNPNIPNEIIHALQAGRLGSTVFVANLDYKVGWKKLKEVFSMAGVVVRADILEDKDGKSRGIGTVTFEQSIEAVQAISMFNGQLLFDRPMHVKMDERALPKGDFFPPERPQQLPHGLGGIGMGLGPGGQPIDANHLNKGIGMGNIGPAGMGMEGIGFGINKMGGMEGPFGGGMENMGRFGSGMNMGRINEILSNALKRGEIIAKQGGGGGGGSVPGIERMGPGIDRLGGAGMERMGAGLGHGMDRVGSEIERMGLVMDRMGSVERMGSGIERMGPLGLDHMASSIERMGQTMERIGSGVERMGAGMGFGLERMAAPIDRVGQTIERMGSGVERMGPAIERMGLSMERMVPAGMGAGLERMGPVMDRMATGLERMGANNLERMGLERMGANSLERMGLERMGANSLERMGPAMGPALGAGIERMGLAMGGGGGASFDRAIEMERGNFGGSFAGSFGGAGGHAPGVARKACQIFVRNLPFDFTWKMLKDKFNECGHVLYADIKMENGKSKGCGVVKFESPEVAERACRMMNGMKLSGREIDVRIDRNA

Experiment [4] addresses T4, HeLa cell extract proteins (Homo sapiens, UniProt P53999).
T4 construct: endogenous in cells; host or cells: HeLa cell extract

For experiment [5], the target named is T5, HeLa cell extract proteins (Homo sapiens, UniProt Q9NUI1).
T5 construct: endogenous in cells; host or cells: HeLa cell extract
T5 sequence (Q9NUI1 1-292): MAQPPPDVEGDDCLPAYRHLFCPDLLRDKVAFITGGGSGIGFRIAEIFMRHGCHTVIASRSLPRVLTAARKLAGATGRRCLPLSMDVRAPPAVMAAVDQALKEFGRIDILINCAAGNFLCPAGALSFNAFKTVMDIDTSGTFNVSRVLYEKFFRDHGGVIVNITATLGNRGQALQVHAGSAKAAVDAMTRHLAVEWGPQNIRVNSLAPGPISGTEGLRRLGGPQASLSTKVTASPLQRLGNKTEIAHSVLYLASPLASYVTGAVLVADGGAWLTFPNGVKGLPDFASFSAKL

In experiment [6] the target is T6, HeLa cell extract proteins (Homo sapiens, UniProt Q9NVI1).
T6 construct: endogenous in cells; host or cells: HeLa cell extract
T6 sequence (Q9NVI1 1-1328): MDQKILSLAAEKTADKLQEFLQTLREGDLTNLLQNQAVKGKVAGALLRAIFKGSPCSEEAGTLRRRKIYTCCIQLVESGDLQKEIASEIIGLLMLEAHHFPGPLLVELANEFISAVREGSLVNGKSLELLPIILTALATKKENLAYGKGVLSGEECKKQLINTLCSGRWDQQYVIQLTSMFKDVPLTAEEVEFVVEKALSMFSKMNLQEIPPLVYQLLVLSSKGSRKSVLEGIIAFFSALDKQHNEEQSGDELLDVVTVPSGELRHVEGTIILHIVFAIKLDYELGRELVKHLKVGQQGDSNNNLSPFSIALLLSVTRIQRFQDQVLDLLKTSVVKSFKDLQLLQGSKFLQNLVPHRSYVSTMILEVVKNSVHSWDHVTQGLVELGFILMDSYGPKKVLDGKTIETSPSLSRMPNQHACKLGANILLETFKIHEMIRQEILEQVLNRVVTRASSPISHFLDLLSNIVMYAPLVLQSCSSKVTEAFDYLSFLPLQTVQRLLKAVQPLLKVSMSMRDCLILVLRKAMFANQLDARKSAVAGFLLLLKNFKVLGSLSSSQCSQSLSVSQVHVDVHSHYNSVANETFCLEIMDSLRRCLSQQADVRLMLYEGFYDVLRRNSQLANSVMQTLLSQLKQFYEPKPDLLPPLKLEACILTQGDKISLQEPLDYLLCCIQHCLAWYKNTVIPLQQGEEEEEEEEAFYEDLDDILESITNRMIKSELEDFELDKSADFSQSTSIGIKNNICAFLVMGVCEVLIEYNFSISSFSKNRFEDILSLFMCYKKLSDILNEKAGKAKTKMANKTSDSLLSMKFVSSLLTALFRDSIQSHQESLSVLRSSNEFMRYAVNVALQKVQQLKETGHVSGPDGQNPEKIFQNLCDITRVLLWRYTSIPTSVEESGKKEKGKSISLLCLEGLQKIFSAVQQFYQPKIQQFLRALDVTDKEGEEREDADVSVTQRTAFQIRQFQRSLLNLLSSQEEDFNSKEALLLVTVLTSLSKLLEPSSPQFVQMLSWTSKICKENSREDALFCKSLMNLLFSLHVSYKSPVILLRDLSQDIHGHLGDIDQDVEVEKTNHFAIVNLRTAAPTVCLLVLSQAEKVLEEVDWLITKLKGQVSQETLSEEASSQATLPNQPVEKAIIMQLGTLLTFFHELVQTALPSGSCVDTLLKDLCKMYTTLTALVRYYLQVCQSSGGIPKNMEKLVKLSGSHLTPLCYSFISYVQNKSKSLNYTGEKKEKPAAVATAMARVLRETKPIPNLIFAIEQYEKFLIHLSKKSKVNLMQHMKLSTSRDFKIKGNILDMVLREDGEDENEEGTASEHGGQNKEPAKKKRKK

Experiment [7] deals with T7, HeLa cell extract proteins (Homo sapiens, UniProt Q9Y265).
T7 construct: endogenous in cells; host or cells: HeLa cell extract
T7 sequence (Q9Y265 whole entry): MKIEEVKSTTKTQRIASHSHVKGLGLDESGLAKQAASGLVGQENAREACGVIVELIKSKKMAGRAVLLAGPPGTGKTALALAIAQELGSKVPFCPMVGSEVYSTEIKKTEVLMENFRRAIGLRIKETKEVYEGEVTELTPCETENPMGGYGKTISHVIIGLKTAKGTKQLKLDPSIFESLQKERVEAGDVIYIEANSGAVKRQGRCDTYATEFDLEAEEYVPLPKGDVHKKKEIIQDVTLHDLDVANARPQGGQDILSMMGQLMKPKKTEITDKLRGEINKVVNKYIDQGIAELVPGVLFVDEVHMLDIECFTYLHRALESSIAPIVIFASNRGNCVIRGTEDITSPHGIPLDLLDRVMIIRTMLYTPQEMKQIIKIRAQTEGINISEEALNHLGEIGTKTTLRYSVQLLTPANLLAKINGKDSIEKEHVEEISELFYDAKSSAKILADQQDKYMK

[8] abbreviates: HeLa, protein TALDO1 (TRANSALDOLASE.).

T1 sequence (P17980 whole entry): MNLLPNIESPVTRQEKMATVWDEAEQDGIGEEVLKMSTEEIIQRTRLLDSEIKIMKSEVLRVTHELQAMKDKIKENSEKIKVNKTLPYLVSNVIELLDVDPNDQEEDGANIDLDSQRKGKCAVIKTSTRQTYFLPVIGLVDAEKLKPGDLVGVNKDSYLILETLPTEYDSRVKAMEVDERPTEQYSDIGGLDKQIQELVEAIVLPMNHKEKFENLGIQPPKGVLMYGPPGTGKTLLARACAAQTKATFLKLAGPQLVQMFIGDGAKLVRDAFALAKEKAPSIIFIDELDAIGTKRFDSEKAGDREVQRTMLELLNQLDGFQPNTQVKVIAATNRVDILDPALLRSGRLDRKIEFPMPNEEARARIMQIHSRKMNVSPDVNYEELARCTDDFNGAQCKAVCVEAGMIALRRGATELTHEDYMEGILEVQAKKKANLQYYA

Regarding `CCCCCCOc1cccc(Cc2cnc(N)nc2N)c1` [compound 2], the “fold changes relative to vehicle control” value in experiment [1] (protein PSMC3, HeLa) is reported as 1.46; in experiment [2] (setting [8]) it was 2.2 fold; in experiment [3] (HeLa, protein HNRNPM), 1.21; in experiment [4] (protein SUB1, HeLa), 0.99; in experiment [5] (HeLa, protein DECR2), 1.05; in experiment [6] (protein FANCI, HeLa), 1.02. The “fold changes relative to vehicle control” value in experiment [7] (protein RUVBL1, HeLa) came to 1.47.
With `NCCOCCOCC(=O)Nc1nc2ncc(CNc3ccc(C(=O)NC(CCC(=O)O)C(=O)O)cc3)nc2c(=O)[nH]1` (stereo not shown) [compound 6], the “fold changes relative to vehicle control” value in experiment [1] (protein PSMC3, HeLa) is recorded as 1.17; in experiment [2] (protein TALDO1, HeLa), 1.22; in experiment [3] (HeLa, captured protein HNRNPM), 1.01; in experiment [4] (HeLa, protein SUB1), 1.03; in experiment [5] (HeLa, protein DECR2), 0.94; in experiment [6] (HeLa, protein FANCI), 1.11. Besides, in experiment [7] (HeLa, protein RUVBL1), the “fold changes relative to vehicle control” value was 1.07.
`CCCCCCOc1ccc(Cc2cnc(N)nc2N)cc1` [compound 1]: the “fold changes relative to vehicle control” value in experiment [1] (protein PSMC3, HeLa) was found to be 1.24; in experiment [2] (setting [8]) it was 1.32 fold; in experiment [3] (HeLa, protein HNRNPM), 1.09; in experiment [4] (protein SUB1, HeLa), 0.91; in experiment [5] (HeLa, protein DECR2), 1; in experiment [6] (protein FANCI, HeLa), 1. In experiment [7] (protein RUVBL1, HeLa), the “fold changes relative to vehicle control” value was 1.32.
Turning to `Nc1nc2c(c(=O)[nH]1)N(C=O)C(CNc1ccc(C(=O)N[C@@H](CCC(=O)O)C(=O)O)cc1)CN2` (stereo partly shown) [LEU, leucovorin], the “fold changes relative to vehicle control” value stood at 1.02 in experiment [1] (protein PSMC3, HeLa); 0.88 in experiment [2] (protein TALDO1, HeLa); 0.83 in experiment [3] (HeLa, captured protein HNRNPM); 0.7 in experiment [4] (HeLa, protein SUB1); 1.02 in experiment [5] (HeLa, protein DECR2); 0.87 in experiment [6] (HeLa, protein FANCI). In addition, the “fold changes relative to vehicle control” value in experiment [7] (HeLa, protein RUVBL1) came out at 1.06.
On to `NCCCNc1ccc(C(=O)NC(CCC(=O)O)C(=O)O)cc1` (stereo not shown) [compound 7], for which the “fold changes relative to vehicle control” value was 1.03 in experiment [1] (protein PSMC3, HeLa); 0.92 in experiment [2] (protein TALDO1, HeLa); 1.02 in experiment [3] (HeLa, captured protein HNRNPM); 0.87 in experiment [4] (HeLa, protein SUB1); 0.93 in experiment [5] (HeLa, protein DECR2); 1.09 in experiment [6] (HeLa, protein FANCI). For the same compound, the “fold changes relative to vehicle control” value in experiment [7] (HeLa, protein RUVBL1) was determined as 1.2.
For the compound `Nc1nc2[nH]cc(CCc3ccc(C(=O)N[C@@H](CCC(=O)O)C(=O)O)cc3)c2c(=O)[nH]1` [PTX, pemetrexed], the “fold changes relative to vehicle control” value is 1 in experiment [1]; 1.04 in experiment [2]; 0.99 in experiment [3]; 1.08 in experiment [4]; 0.89 in experiment [5]; 1.04 in experiment [6]. Moreover, the “fold changes relative to vehicle control” value in experiment [7] was determined as 0.92.
With `Nc1nc2cccc(-c3ccccc3)c2n1Cc1ccc(Cl)c(Cl)c1` [compound 3], the “fold changes relative to vehicle control” value is listed as 1.03 in experiment [1] (protein PSMC3, HeLa); 0.83 fold in experiment [2] (setting [8]); 0.88 in experiment [3] (HeLa, protein HNRNPM); 1.13 in experiment [4] (protein SUB1, HeLa); 0.99 in experiment [5] (HeLa, protein DECR2); 1.19 in experiment [6] (protein FANCI, HeLa). In experiment [7] (protein RUVBL1, HeLa), the “fold changes relative to vehicle control” value is reported as 1.04.
